Earlier results, collected in patent publication US7452892B2, “Triazolopyrimidine cannabinoid receptor 1 antagonists” (Bristol-Myers Squibb Company, priority 2005, dated 2008).

Assays:
[1] = chronic administration for two weeks
[2] = 16 week trial period

Row | SMILES | body weight [1] | body weight in human subjects [2]
1 | Cc1c(C(=O)NN2CCCCC2)nn(-c2ccc(Cl)cc2Cl)c1-c1ccc(I)cc1 [AM-251] | substantial body weight reduction | –
2 | Cc1c(C(=O)NN2CCCCC2)nn(-c2ccc(Cl)cc2Cl)c1-c1ccc(Cl)cc1 [SR-141716] | – | dose-dependently reduced body weight
